Test: Antiviral activity against SARS-CoV-2 infected in human Huh-7 cells overexpressing human ACE2 pre-infected with cells for 1 hr followed by compound addition and measured 23 hrs post infection by virus plaque assay
Type: functional, cell-based

CC(=O)/C=C/[C@H](C[C@@H]1CCNC1=O)NC(=O)[C@H](CC(C)(C)C)NC(=O)c1ccc(F)cc1
EC50: 3.5 µM

CC(=O)/C=C/[C@H](C[C@@H]1CCNC1=O)NC(=O)[C@H](CC(C)C)NC(=O)c1ccc(F)cc1
EC50: 7.63 µM

CC(=O)/C=C/[C@H](C[C@@H]1CCNC1=O)NC(=O)[C@H](CC1CC1)NC(=O)c1ccccc1F
EC50: 10.3 µM

Source: ChEMBL document CHEMBL6114939, “Identification of Dual Inhibitors Targeting Main Protease (Mpro) and Cathepsin L as Potential Anti-SARS-CoV-2 Agents” (ACS Med Chem Lett, 2024)
